What was measured:
Format in all cases: in vivo
[1] = test system: Chenopodium album L. (common lambsquarters, CHEAL); test: Pre-emergence field trial, weed control of CHEAL
Procedure: (§1) Field trials were conducted with applications made in the area of naturally occurring weed populations in Germany, France, Hungary and Italy. The soil was treated prior to the emergence of target plants. All treatments were applied using a randomized complete block trial design, plots 3 meters (m) wide by 8-10 m long, with 3 replications per treatment.
(§2) Treatments consisted of penoxsulam and pethoxamid, applied alone and in combination. Spray solutions were prepared using an appropriate amount of dilution to treat the area of the plots based on use rates and water volumes necessary based on a per hectacre basis. Spray solutions were prepared and applied with the specified active ingredients in single and two-way combinations to be able to perform Colby synergy calculations. Formulated products were applied to the soil with a backpack or bicycle compressed air sprayer equipped with flat fas nozzles calibrated to deliver from 200 to 300 L/ha at a normal spray height above the solid, at spray pressures ranging from 210 to 350 kilopascals (kPa).
(§3) The treated plots and control plots were rated blind at various intervals after application. Ratings were based on a scale of 0-100%, as discussed above, wherein 0% indicates no control of the undesired vegetation and 100% indicates complete control of the undesired vegetation.
(§4) Colby's equation was used to determine the herbicidal effects expected from the mixtures, as described above. The results were measured at the evaluation intervals provided in Table 1 after the first application of the compositions. […] The herbicide tank mix combinations tested, application rates and ratios employed, plant species tested, and results are given below.

[2] = test system: Kickxia elantine (canker root, KICEL); test: Pre-emergence field trial, weed control of KICEL
Procedure: as §1, §2
(§5) The treated plots and control plots were rated blind at various intervals after application. […]
(§6) Colby's equation was used to determine the herbicidal effects expected from the mixtures, as described above. The results were measured at the evaluation intervals provided in Table 1 after the first application of the compositions. […]

[3] = test system: Mercurialis annua (annual mercury, MERAN); test: Pre-emergence field trial, weed control of MERAN; conditions: 29 days
Procedure: as §1, §2, §5, §6

[4] = test system: Ambrosia artemisiifolia L. (common ragweed, AMBEL); test: Pre-emergence field trial, weed control of AMBEL
Procedure: as §1, §2, §3, §4

[5] = test system: Echinochloa crus-galli (L.) P. Beauv. (barnyardgrass, ECHCG); test: Pre-emergence field trial, weed control of ECHCG
Procedure: as §1, §2, §3, §4

[6] = test system: Xanthium strumarium L. (common cocklebur, XANST); test: Pre-emergence field trial, weed control of XANST
Procedure: as §1, §2, §3, §4

[7] = test system: Polygonum persicaria L. (ladysthumb, POLPE); test: Pre-emergence field trial, weed control of POLPE; conditions: 54 days
Procedure: as §1, §2, §5, §6

[8] = 14 days, penoxsulam 5 g ai/ha alone
[9] = 28 days, penoxsulam 5 g ai/ha alone
[10] = 28 days, penoxsulam 10 g ai/ha alone
[11] = 58 days, penoxsulam 5 g ai/ha alone
[12] = 58 days, penoxsulam 10 g ai/ha alone
[13] = 14 days, pethoxamid 1200 g ai/ha alone
[14] = 28 days, pethoxamid 1200 g ai/ha alone
[15] = 58 days, pethoxamid 1200 g ai/ha alone

COc1cnc(OC)n2nc(NS(=O)(=O)c3c(OCC(F)F)cccc3C(F)(F)F)nc12 [Penoxsulam]
Mean % weed control [1, 8]: 26.67% | Mean % weed control [1, 9]: 13.33% | Mean % weed control ([1]; 29 days, penoxsulam 5 g ai/ha alone): 95% | Mean % weed control ([1]; 46 days, penoxsulam 5 g ai/ha alone): 43.33% | Mean % weed control ([2]; 696 h): 20% | Mean % weed control ([3]; penoxsulam 10 g ai/ha alone): 36.67% | Mean % weed control [4, 8]: 50% | Mean % weed control ([4]; 14 days, penoxsulam 10 g ai/ha alone): 78.33% | Mean % weed control [4, 9]: 33.33% | Mean % weed control [4, 10]: 66.67% | Mean % weed control [4, 11]: 33.33% | Mean % weed control [4, 12]: 66.67% | Mean % weed control [5, 10]: 76.67% | Mean % weed control [5, 11]: 20% | Mean % weed control [5, 12]: 63.33% | Mean % weed control [6, 9]: 20% | Mean % weed control [6, 11]: 10% | Mean % weed control ([7]; penoxsulam 5 g ai/ha alone): 90%

CCOCCN(C(=O)CCl)C(=C(C)C)c1ccccc1 [Pethoxamid, 2-chloro-N-(ethoxyethyl)-N-(2-methyl-1-phenylprop-1-enyl)acetamide]
Mean % weed control [1, 13]: 26.67% | Mean % weed control [1, 14]: 6.67% | Mean % weed control ([1]; 29 days, pethoxamid 1200 g ai/ha alone): 0% | Mean % weed control ([1]; 46 days, pethoxamid 1200 g ai/ha alone): 16.67% | Mean % weed control ([2]; KICEL, 29 days, pethoxamid 1200 g ai/ha alone): 0% | Mean % weed control ([3]; pethoxamid 1200 g ai/ha alone): 0% | Mean % weed control [4, 13]: 33.33% | Mean % weed control [4, 14]: 13.33% | Mean % weed control [4, 15]: 13.33% | Mean % weed control [5, 14]: 33.33% | Mean % weed control [5, 15]: 16.67% | Mean % weed control [6, 14]: 3.33% | Mean % weed control [6, 15]: 0% | Mean % weed control ([7]; pethoxamid 1200 g ai/ha alone): 72.33%

Reference: patent US9288990B2, “Synergistic weed control from applications of penoxsulam and pethoxamid” (Dow AgroSciences, LLC, priority 2013, dated 2016)
